# Source: ChEMBL document CHEMBL1201862, “PubChem BioAssay data set” (2004)
# The source made the active and inactive calls. No stated cut-off is given here; in the data, actives have a measured IC50 and inactives only a lower limit.
# Target: Envelope glycoprotein gp160 (Human immunodeficiency virus 1, UniProt Q6QLK5)
# Assay: inhibitors of HIV fusion peptide binding, primary screen, biochemical, uHTS, fluorescence dequenching (AID 1986)
# Envelope glycoprotein gp160, sequence (Q6QLK5 whole entry, the tested form may be a part): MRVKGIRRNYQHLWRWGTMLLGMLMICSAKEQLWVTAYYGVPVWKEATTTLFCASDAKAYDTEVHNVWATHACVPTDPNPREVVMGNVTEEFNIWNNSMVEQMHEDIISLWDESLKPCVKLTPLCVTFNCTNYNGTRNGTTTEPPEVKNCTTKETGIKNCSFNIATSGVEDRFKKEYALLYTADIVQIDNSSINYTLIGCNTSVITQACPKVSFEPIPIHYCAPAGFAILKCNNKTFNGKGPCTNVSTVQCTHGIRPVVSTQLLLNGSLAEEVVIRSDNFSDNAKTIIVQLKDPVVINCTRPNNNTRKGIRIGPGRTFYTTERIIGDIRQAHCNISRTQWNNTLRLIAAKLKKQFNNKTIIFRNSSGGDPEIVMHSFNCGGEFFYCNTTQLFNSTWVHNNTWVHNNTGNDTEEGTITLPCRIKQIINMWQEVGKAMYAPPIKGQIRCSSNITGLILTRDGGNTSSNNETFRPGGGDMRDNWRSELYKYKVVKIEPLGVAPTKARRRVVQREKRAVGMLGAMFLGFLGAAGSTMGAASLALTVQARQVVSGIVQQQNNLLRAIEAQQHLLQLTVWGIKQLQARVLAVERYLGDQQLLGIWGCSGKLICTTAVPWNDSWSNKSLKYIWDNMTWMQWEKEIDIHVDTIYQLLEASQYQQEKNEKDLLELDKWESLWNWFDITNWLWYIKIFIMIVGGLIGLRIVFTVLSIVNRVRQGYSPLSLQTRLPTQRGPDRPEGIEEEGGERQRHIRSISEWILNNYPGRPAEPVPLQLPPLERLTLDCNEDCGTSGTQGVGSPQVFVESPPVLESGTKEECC
compound,measurement,value
CCOC(=O)c1sc2nc3c(SCCC(=O)O)cc(C(=O)c4cc(OC)ccc4O)cn3c(=O)c2c1C,IC50,16 µM (active)
